Measured values from patent US12116356B2, “N-heterocyclic five-membered ring-containing capsid protein assembly inhibitor, pharmaceutical composition thereof, and use thereof” (CHIA TAI TIANQING PHARMACEUTICAL GROUP CO., LTD., priority 2018, dated 2024).

Key:
[1] = Plasma protein binding assay (equilibrium dialysis), dog plasma; type: in vitro ADME
Experimental: (§1) Formulation of plasma sample: 495 μL of blank plasmas of the corresponding species (mouse, rat, dog, monkey, and human) were drawn respectively, and thereto was added 5 μL of the corresponding test compound solution or positive control to give plasma sample solutions having a plasma drug concentration of the compound of 1 μM, and 10 μM, respectively (formulated with acetonitrile).
(§2) The pre-treated dialysis membrane was placed in a high-throughput equilibrium dialysis device, and 100 μL of the plasma sample solution and PBS buffer solution were drawn and added respectively to both sides of the dialysis membrane (sample side and buffer side) (n=3). After the equilibration device was sealed with a film, it was incubated at 37° C. overnight (100 rpm). After dialysis equilibrium was reached, 50 μL samples were drawn from the sample side and the buffer side, respectively, and the reaction was terminated by adding ice acetonitrile containing an internal standard.
(§3) Sample pre-treatment: To 50 μL of the plasma-side sample was added 450 μL of ice acetonitrile containing an internal standard, and then precipitated. After vortexing for 5 minutes, the sample was centrifugated (12000 rpm, 4° C.) for 10 minutes. 75 μL of the supernatant was pipetted, and 75 μL of ultrapure water was added thereto for dilution and mixed uniformly. 1 μL of the resulting solution was injected for analysis. To 50 μL of the PBS-side sample was added 250 μL of ice acetonitrile with an internal standard, and precipitated. After vortexing for 5 min, the sample was centrifugated (12000 rpm, 4° C.) for 10 min. 75 μL of the supernatant was pipetted, and 75 μL of ultrapure water was added thereto for dilution and mixed uniformly. 2 μL of the resulting solution was injected for analysis.

[2] = Plasma protein binding assay (equilibrium dialysis), mouse plasma; type: in vitro ADME
Experimental: as §1, §2, §3

[3] = test system: HBV (recombinant plasmid pHBV 1.3); assay: Antiviral effect evaluation in HDI mouse model; type: in vivo, C57BL/6 mice; settings: 30 mg/kg intragastric once daily for 6 days
Experimental: 6-8 week old male C57BL/6 mice was used, and each mouse was injected with purified recombinant plasmid pHBV 1.3 (10 μg) dissolved in PBS equivalent to a volume of about 10% of its body weight through the tail vein within 3-8 s. Blood was collected from the orbits of the mice at 24 hours after the plasmid injection to detect serum HBV DNA. The model mice having uniform serum DNA were selected and divided into: a blank control group, a vehicle control group, and a test substance group. Mice in each group were continuously administered intragastrically once daily for 6 days at a dose of 30 mg/kg. The mouse serum was taken on day 1, 3, 5, and 7 after the injection, and the mice were sacrificed on day 7 to take liver tissue samples. The HBV DNA copy numbers in serum and liver of the mice were detected by fluorescent quantitative PCR method.

CYP 3A4 = CYP 3A4 (Homo sapiens (Human), UniProt P08684); assay: CYP450 enzyme inhibition study (liver microsomes, subtype IC50); type: in vitro ADME; settings: 30 minutes, read-out: Subtypes IC50 3A4
Experimental: (§4) 500 μL of a final incubation system contains 50 μL of liver microsomes (protein concentration: 0.2 mg/mL), 1 μL of mixed CYP450 specific substrates (CYP1A2, CYP 2B6, CYP 2C9, CYP2C19, CYP 2D6, and CYP 3A4), 398 μL PBS buffer (PH7.4), 1 μL specific positive inhibitor (positive control group) or the test compound (formulated with acetonitrile), and 50 μL NADPH+MgCl2. Duplicate incubation systems of 0.5 mL each were formulated for each CYP450 subtype. A total volume of 450 μL of a uniformly mixed solution of the substrate and the enzyme was formulated in each tube, and the solution and NADPH were pre-incubated at 37° C. for 5 minutes, respectively. Then 50 μL of the mixed solution of NADPH+MgCl2 was added for reaction. 50 μL of the reaction solution was taken out at 30 minutes, and the reaction was terminated with 300 μL of ice acetonitrile containing an internal standard. In addition, two control groups of 500 μL each without NADPH were prepared in parallel as a negative control group.
(§5) Sample pre-treatment: To 50 μL of the incubated sample was added 300 μL of ice acetonitrile containing an internal standard, and then precipitated. After vortexing for 5 minutes, the sample was centrifugated (12000 rpm, 4° C.) for 10 minutes. 75 μL of the supernatant was pipetted, and 75 μL of ultrapure water was added thereto for dilution and mixed uniformly. 1 μL of the resulting solution was injected for analysis.

CYP2C19 = CYP2C19 (Homo sapiens (Human), UniProt P33261); assay: as above; type: in vitro ADME; settings: 30 minutes, read-out: Subtypes IC50 2C19
Experimental: as §4, §5

CYP1A2 = CYP1A2 (Homo sapiens (Human), UniProt P05177); assay: as above; type: in vitro ADME
Experimental: as §4, §5

CYP 2B6 = CYP 2B6 (Homo sapiens (Human), UniProt P20813); assay: as above; type: in vitro ADME; settings: 30 minutes, read-out: Subtypes IC50 2B6
Experimental: as §4, §5

CYP 2D6 = CYP 2D6 (Homo sapiens (Human), UniProt P10635); assay: as above; type: in vitro ADME; settings: 30 minutes, read-out: Subtypes IC50 2D6
Experimental: as §4, §5

CYP 2C9 = CYP 2C9 (Homo sapiens (Human), UniProt P11712); assay: as above; type: in vitro ADME; settings: 30 minutes, read-out: Subtypes IC50 2C9
Experimental: as §4, §5

[4] = Plasma protein binding assay (equilibrium dialysis), monkey plasma; type: in vitro ADME
Experimental: as §1, §2, §3

[5] = Plasma protein binding assay (equilibrium dialysis), human plasma; type: in vitro ADME
Experimental: as §1, §2, §3

[6] = Plasma protein binding assay (equilibrium dialysis), rat plasma; type: in vitro ADME
Experimental: as §1, §2, §3

[7] = test system: rAAV8-1.3HBV virus (adr subtype); assay: Antiviral effect evaluation in AAV mouse model; type: in vivo, C57BL/6 mice; settings: 30 mpk intragastric once daily, administration for 24 days
Experimental: 6-8 week old male C57BL/6 mice were injected with rAAV8-1.3HBV virus (adr subtype) at tail vein at a dose of 1×10^11 vg. Blood was collected from the orbits of the mice on week 2 and 4 after the virus injection. The serum was separated, and the expression levels of HBeAg and HBsAg in the serum and the HBV DNA copy number were detected to evaluate whether the model was successfully established. According to the results of quantitative detection of serological HBeAg, HBsAg and HBV DNA, the mice having HBV DNA expression level greater than 1×10^4 IU/mL, HBeAg expression level greater than 1×10^3 NCU/mL and HBsAg expression level greater than 1×10^3 ng/mL were selected. The mice were grouped into a blank control group, a vehicle control group, and a test substance group. […] During the experiment, blood was collected from the orbits every other week, serum was separated, and the DNA content was detected by fluorescent quantitative PCR method.

Sequence of CYP 2B6 (P20813 whole entry): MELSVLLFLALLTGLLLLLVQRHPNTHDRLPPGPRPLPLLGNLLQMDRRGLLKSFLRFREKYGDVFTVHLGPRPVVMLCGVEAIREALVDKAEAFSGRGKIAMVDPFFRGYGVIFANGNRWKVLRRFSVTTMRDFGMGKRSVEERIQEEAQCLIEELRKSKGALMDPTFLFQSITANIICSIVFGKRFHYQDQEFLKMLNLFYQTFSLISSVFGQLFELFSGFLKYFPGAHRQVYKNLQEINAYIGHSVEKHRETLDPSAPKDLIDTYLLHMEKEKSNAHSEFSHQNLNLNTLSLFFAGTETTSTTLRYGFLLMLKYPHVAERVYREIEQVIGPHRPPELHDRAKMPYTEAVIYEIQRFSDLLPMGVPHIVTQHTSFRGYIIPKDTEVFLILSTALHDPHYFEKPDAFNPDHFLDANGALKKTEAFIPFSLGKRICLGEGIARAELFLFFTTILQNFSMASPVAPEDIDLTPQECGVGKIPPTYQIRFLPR
Sequence of CYP 2C9 (P11712 whole entry): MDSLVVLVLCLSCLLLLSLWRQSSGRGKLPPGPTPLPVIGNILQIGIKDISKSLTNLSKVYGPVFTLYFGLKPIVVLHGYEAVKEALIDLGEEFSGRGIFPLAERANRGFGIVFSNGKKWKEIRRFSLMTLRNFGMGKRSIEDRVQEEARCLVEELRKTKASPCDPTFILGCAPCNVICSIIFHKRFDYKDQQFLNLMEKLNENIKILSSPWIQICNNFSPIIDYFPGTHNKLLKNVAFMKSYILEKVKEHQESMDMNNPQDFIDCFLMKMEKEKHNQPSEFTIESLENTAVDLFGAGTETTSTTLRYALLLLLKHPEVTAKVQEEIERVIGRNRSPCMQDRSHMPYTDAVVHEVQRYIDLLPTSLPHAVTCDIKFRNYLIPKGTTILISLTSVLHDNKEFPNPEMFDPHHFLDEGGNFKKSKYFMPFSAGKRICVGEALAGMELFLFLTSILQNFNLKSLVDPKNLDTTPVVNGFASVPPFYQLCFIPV
Sequence of CYP1A2 (P05177 whole entry): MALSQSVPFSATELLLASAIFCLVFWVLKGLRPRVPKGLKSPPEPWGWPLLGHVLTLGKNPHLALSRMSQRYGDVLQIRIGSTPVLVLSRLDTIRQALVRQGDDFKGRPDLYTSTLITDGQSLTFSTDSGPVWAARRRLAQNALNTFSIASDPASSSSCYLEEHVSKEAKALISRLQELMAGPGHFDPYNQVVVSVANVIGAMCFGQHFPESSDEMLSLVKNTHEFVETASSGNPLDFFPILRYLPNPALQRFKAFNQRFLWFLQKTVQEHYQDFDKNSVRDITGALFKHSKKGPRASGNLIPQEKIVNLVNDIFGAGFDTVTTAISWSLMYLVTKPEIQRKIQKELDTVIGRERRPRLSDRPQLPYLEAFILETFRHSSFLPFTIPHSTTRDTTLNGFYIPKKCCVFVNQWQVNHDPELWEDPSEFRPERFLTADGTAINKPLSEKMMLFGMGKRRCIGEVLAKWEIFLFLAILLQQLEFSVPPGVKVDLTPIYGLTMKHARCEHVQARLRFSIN
Sequence of CYP 2D6 (P10635 whole entry): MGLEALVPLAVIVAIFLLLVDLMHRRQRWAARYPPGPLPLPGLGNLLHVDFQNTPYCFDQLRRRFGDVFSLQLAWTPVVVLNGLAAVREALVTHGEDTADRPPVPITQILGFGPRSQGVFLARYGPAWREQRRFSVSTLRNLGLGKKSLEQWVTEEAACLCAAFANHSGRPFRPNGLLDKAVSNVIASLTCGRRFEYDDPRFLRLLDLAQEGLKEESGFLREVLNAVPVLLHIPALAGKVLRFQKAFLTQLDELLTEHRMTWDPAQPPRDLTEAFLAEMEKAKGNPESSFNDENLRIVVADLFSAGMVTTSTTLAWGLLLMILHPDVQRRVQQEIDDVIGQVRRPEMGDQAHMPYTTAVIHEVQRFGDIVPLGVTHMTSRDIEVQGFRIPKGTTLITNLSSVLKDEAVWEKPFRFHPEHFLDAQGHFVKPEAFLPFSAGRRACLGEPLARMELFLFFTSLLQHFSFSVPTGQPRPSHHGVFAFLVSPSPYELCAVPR
Sequence of CYP2C19 (P33261 whole entry): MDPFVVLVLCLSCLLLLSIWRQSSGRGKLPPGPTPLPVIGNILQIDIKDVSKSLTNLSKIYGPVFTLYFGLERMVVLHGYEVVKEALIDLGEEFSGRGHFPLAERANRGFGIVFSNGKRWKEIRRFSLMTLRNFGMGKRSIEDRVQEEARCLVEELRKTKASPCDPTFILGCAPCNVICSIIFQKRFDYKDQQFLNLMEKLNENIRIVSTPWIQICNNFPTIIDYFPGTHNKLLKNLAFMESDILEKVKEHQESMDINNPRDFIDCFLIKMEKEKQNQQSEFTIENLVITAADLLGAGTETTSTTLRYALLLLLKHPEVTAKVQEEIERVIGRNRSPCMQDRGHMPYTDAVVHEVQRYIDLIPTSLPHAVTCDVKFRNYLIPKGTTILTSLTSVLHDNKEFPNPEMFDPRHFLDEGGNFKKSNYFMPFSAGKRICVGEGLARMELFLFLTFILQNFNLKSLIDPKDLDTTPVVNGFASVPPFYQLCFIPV
Sequence of CYP 3A4 (P08684 whole entry): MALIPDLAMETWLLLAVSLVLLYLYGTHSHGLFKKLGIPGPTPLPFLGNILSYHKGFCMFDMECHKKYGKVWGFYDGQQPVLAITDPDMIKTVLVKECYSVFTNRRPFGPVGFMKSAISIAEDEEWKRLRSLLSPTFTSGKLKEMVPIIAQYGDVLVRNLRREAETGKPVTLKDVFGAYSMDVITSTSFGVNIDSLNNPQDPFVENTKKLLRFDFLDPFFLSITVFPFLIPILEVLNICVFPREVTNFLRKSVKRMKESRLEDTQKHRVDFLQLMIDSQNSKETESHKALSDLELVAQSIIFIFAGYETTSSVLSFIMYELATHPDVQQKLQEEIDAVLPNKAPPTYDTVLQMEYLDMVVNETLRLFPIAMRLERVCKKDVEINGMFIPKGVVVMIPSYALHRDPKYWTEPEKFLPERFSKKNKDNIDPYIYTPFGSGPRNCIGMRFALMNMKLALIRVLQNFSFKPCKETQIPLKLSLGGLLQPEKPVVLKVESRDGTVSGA

Compound	Binding rate ([1]; 1 μM) [%]	Binding rate ([1]; 10 μM) [%]	Binding rate ([2]; 1 μM) [%]	Binding rate ([2]; 10 μM) [%]	Reduction levels (log10) of HBV DNA in semm on day 5 [3] [log10]	IC50 (CYP 3A4) [µM]	IC50 (CYP2C19) [µM]	IC50 (CYP1A2) [µM]	IC50 (CYP 2B6) [µM]	IC50 (CYP 2D6) [µM]	IC50 (CYP 2C9) [µM]	Binding rate ([4]; 1 μM) [%]	Binding rate ([4]; 10 μM) [%]	Binding rate ([5]; 1 μM) [%]	Binding rate ([5]; 10 μM) [%]	Binding rate ([6]; 1 μM) [%]	Binding rate ([6]; 10 μM) [%]	Reduction levels (log10) of HBV DNA in serum, Day 7 [7] [log10]	Reduction levels (log10) of HBV DNA in serum, Day 14 [7] [log10]	Reduction levels (log10) of HBV DNA in serum, Day 21 [7] [log10]	also measured
Cc1c(C(=O)Nc2ccc(F)c(C#N)c2)c(C)n(C)c1C(=O)C(=O)N[C@@H](C)C(F)(F)F [Example 12]	85.9	85.9	75.3	74.5	2.17	> 200	60	46.4	146	224	79.7	90.7	90.6	94.0	93.7	82.0	79.2	2.42	3.46	5.08	Reduction levels (log10) of HBV DNA in serum, Day 28 [7]: 2.48 log10
Cc1c(C(=O)Nc2ccc(F)c(C#N)c2)c(C)n(C)c1C(=O)C(=O)NC1(C(F)(F)F)COC1 [Example 25, N-(3-cyano-4-fluorophenyl)-1,2,4-trimethyl-5-(2-oxo-2-((3-(trifluoromethyl)oxetan-3-yl)amino)acetyl)-1H-pyrrole-3-carboxamide]	87.0	86.8	76.5	74.7	1.73	76	24.9	229	61.1	120	16.6	87.4	85.6	92.9	92.2	79.5	77.0	1.16	1.76	2.89	Reduction levels (log10) of HBV DNA in serum, Day 28 [7]: 1.28 log10
